For experiment [1], the system named is adult female cynomolgus monkeys. As to the kind of experiment: Part II: titering the GnRHant dose to individual monkeys with periodic progesterone challenge tests (withdrawal bleeding versus amenorrhea, serum estradiol RIA). It is filed as in vivo. The protocol:
(§1) Eleven adult female cynomolgus monkeys having regular and presumably ovulatory menstrual cycles were entered into the study. Body weights were determined monthly. Menstrual bleeding and spotting were recorded daily by visual inspection of external genitalia and insertion of vaginal swabs using a saline moistened cotton-tipped applicator, respectively. Blood samples were collected from femoral vessels and the serum stored for subsequent RIA of estradiol and progesterone. Coefficients of variation for these assays were: 7.4 and 11.1; and 7.0 and 10.9%, respectively, for within and between assays. The GnRH antagonist (GnRHant) used was Nal-Glu: [Ac-D2NAL, 4ClDPhe^2, D3Pal^3, Arg^5, DGlu^6 (AA), DAla^10 ]-GnRH.
Concurrently, a pair of progesterone-loaded silastic implants were inserted sc during GnRHant treatment from day 20 and 30, and then removed. If withdrawal menses occurred during the next week, the individual Nal-Glu dose was raised to 0.1 mg/kg daily. […] Again, amenorrhea or withdrawal menses was recorded.
For definition, withdrawal bleeding was scored when blood was on the external genitalia for two or more consecutive days within the week following progesterone withdrawal. Spotting was scored when blood was evident only by coloration of the cotton swab upon insertion into the vagina.

For experiment [2] the test system is unchanged. Kind of experiment: Part I dose-finding study: residual serum estradiol (RIA) during 14 days of daily im GnRH antagonist. Conditions: 0.1 mg/kg im daily; individual monkeys for whom the dose was too much, predominately. It counts as in vivo. As to the method:
as §1
In Part I of the study, the object was to perform a brief dose-finding study that indicated residual serum estradiol levels in intact primates previously illustrating regular menstrual cycles. Specifically sought was an approximation of the minimal daily im dose of Nal-Glu sufficient to suppress circulating estradiol levels into the target range: less than 45 pg/ml but more than 35 pg/ml. Beginning on day 2 of the menstrual cycle, Nal-Glu GnRHant, suspended in sesame oil, was administered between 9 and 10 am in doses of 0.1 (n=5) and 0.3 mg/kg (n=6) for 14 days. Femoral blood was obtained daily under ketamine anesthesia. […]

In a further experiment the test system is pituitary-ovarian axis. Conditions: sufficient single dose, monkeys, follicular phase; cited from earlier work.

Where “and” joins values, the source holds several entries; their conditions need not be identical. Identical values can stand only once.

On to “[Ac-D2NAL, 4ClDPhe^2, D3Pal^3, Arg^5, DGlu^6 (AA), DAla^10 ]-GnRH [Nal-Glu]”, for which, in experiment [1] (8 monkeys after increase of the dose to 0.1 mg/kg im daily), the “mean serum estradiol concentrations” value is given as “approximately 40 pg/ml”. Moreover, the “Amenorrhea Achieved (Monkeys)” value in experiment [1] (first progesterone challenge test, withdrawal week days 31-37, all 11 monkeys at 0.05 mg/kg im daily) was “two and 2/11”; in experiment [1] (second progesterone challenge test, withdrawal week days 61-67, doses 0.05 or 0.1 mg/kg im daily), 10/11; in experiment [1] (third progesterone challenge test, withdrawal week days 91-97, doses 0.05, 0.1 or 0.2 mg/kg im daily), “all eleven and 11/11”. Also, the “monkeys manifesting frank withdrawal menses” value in experiment [1] (first progesterone challenge test, 0.05 mg/kg im daily) is on record as “Nine”. In addition, in experiment [1] (lone resistant monkey at 0.2 mg/kg im daily, ultimately), the serum estradiol result is reported as “under 20 pg/ml”. The “withdrawal outcome of the two monkeys that remained on 0.05 mg/kg” value in experiment [1] (second progesterone challenge test, 0.05 mg/kg im daily) is “remained amenorrheic”. The “monkeys achieving withdrawal amenorrhea” value in experiment [1] (second progesterone challenge test, the nine females raised to 0.1 mg/kg im daily on day 31) was 8 of 9. Also, the “mean serum estradiol levels” value in experiment [1] (the two primates amenorrheic at 0.05 mg/kg im daily, target zone 35 to 45 pg/ml) is “hovered in or near the target zone”. Besides, the “Incidence of Spotting” value in experiment [1] (week of progesterone withdrawal days 31-37, 0.05 mg/kg im daily) came out at 13 days; in experiment [1] (week of progesterone withdrawal days 61-67, 0.05 or 0.1 mg/kg im daily) it was 12 days; in experiment [1] (week of progesterone withdrawal days 91-97, 0.05, 0.1 or 0.2 mg/kg im daily) it was 0 days. Further, the “serum estradiols of some primates” value in experiment [2] is less than 25 pg/mL.
As to “D-Ac-D-2-Nal^1 -DpClPhe^2 -D-3-Pal^3 -Ser^4 -NiLys^5 -D-NicLys^6 -Leu^7 -ILys^8 -Pro^9 -D-Ala^10 [antide]”, the “effect on the pituitary-ovarian axis” value in the experiment on pituitary-ovarian axis was “immediate and sustained inhibition of the pituitary-ovarian axis”.
